Measurements as given in patent US20250215030A1, “STAT MODULATORS AND USES THEREOF” (Recludix Pharma, Inc., priority 2022, published 2025).
pIC50: −log10 of the molar value.

Legend:
pSTAT3 (pY705-STAT3) = target: T1, pSTAT3 (pY705-STAT3) (Homo sapiens, UniProt P40763); experiment: MSD-pSTAT-PBMC Assay (pSTAT3, IL-6 stimulated); assay type: cell-based; conditions: PBMC, compound 3 hrs, then 10 ng/mL IL-6 for 10 min; MSD pY705-STAT3; read-out: pSTAT3
T1 construct: host or cells: cryopreserved PBMC
T1 sequence (P40763 whole entry): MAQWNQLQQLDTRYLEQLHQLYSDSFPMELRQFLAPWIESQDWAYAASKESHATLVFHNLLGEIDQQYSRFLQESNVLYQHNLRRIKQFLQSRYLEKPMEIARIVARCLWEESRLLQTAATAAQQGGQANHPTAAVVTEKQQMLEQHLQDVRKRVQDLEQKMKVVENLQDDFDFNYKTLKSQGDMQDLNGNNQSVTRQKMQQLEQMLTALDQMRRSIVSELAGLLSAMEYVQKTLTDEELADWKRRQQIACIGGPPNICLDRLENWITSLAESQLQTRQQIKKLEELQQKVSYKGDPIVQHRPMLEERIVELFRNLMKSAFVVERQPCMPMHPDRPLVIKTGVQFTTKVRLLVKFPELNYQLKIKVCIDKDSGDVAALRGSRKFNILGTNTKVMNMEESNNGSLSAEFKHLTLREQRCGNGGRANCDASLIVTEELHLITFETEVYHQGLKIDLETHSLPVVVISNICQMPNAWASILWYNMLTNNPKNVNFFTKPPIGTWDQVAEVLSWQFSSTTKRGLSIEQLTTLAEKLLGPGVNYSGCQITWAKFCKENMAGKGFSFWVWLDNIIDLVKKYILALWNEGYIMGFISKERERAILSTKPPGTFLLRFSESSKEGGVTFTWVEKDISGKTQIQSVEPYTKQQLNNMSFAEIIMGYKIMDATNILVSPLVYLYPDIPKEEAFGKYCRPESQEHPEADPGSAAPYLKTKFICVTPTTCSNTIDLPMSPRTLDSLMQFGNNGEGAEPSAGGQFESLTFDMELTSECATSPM
Outline: (§1)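 Phospho-STAT levels captured on anti-STAT3 or anti-STAT6 plates and detected with anti-pY705 or anti-pY641 antibodies (MSD read-out). Cryopreserved human PBMCs received compound for 3 h before a 10 min pulse of IL-6 (10 ng/mL, STAT3) or IL-4 (1 ng/mL, STAT6). IC50 fitted after unstimulated-background subtraction and DMSO normalization.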

pSTAT6 (pY641-STAT6) = target: T2, pSTAT6 (pY641-STAT6) (Homo sapiens, UniProt P42226); experiment: MSD-pSTAT-PBMC Assay (pSTAT6, IL-4 stimulated); assay type: cell-based; conditions: compound 3 hrs, then 1 ng/mL IL-4 for 10 min
T2 construct: host or cells: cryopreserved PBMC
T2 sequence (P42226 1-847): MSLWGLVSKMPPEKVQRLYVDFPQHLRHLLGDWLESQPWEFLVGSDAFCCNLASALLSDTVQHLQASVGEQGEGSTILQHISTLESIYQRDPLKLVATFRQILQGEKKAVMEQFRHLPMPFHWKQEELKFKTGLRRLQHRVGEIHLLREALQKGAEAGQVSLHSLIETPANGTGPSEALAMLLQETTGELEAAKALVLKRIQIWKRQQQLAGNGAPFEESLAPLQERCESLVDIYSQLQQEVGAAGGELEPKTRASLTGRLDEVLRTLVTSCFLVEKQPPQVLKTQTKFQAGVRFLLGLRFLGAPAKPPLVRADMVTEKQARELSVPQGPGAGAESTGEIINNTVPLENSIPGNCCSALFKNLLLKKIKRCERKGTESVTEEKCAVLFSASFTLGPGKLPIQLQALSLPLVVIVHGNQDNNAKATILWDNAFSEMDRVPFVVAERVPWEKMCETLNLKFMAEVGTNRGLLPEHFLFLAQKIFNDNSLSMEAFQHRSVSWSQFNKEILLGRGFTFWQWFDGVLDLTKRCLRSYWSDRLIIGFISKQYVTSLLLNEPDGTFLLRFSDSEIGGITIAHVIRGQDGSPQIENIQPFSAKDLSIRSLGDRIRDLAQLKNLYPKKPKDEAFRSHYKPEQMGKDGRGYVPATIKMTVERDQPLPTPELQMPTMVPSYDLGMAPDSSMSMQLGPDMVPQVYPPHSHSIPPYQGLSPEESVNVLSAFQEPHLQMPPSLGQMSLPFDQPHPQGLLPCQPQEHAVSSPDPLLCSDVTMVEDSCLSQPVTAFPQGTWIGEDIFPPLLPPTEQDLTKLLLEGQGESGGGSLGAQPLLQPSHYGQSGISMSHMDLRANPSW
Outline: as §1

CC(C)(C)C(=O)OCOP(=O)(OCOC(=O)C(C)(C)C)C(F)(F)c1ccc2sc(C(=O)N[C@H]3C[C@@H]4C[C@@H]4C[C@H]4CC[C@@H](C(=O)N5CC(N6CCOCC6)C5)N4C3=O)cc2c1 [Compound 204, (((difluoro(2-(((3S,6S,7aS, 8aR,9aR)-3-(3-morpholino-azetidine-1-carbonyl)-5-oxodecahydro-1H-cyclopropa[d]pyrrolo[1,2-a]azocin-6-yl)carbamoyl)benzo[b]thiophen-5-yl)methyl)phosphoryl)bis(oxy)) bis(methylene) bis(2,2-dimethyl-propanoate)]
pIC50 (pSTAT3 (pY705-STAT3)): > 7.00
pIC50 (pSTAT6 (pY641-STAT6)): 6.00 to 7.00

CC(C)(C)C(=O)OCOP(=O)(OCOC(=O)C(C)(C)C)C(F)(F)c1ccc2sc(C(=O)N[C@H]3C[C@@H]4C[C@@H]4C[C@H]4CC[C@@H](C(=O)N5CC(C6CCOCC6)C5)N4C3=O)cc2c1 [Compound 205, (((difluoro(2-(((3S,6S,7aS, 8aR,9aR)-5-oxo-3-(3-(tetrahydro-2H-pyran-4-yl)azetidine-1-carbonyl)decahydro-1H-cyclopropa[d]pyrrolo[1,2-a]azocin-6-yl)carbamoyl)benzo[b]thiophen-5-yl)methyl)phosphoryl)bis(oxy)) bis(methylene) bis(2,2-dimethyl-propanoate)]
pIC50 (pSTAT3 (pY705-STAT3)): > 7.00
pIC50 (pSTAT6 (pY641-STAT6)): 6.00 to 7.00

CC(C)(C)C(=O)OCOP(=O)(OCOC(=O)C(C)(C)C)C(F)(F)c1ccc2sc(C(=O)N[C@H]3C[C@@H]4C[C@@H]4C[C@H]4CC[C@@H](C(=O)N5CC(c6ccccn6)C5)N4C3=O)cc2c1 [Compound 206, (((difluoro(2-(((3S,6S,7aS, 8aR,9aR)-5-oxo-3-(3-(pyridin-2-yl)azetidine-1-carbonyl)decahydro-1H-cyclopropa[d]pyrrolo[1,2-a]azocin-6-yl)carbamoyl)benzo[b]thiophen-5-yl)methyl)phosphoryl)bis(oxy)) bis(methylene) bis(2,2-dimethyl-propanoate)]
pIC50 (pSTAT3 (pY705-STAT3)): > 7.00
pIC50 (pSTAT6 (pY641-STAT6)): 6.00 to 7.00

CC(C)(C)C(=O)OCOP(=O)(OCOC(=O)C(C)(C)C)C(F)(F)c1ccc2sc(C(=O)N[C@H]3C[C@@H]4C[C@@H]4C[C@H]4CC[C@@H](C(=O)N5CC(n6ccnc6)C5)N4C3=O)cc2c1 [Compound 207]
pIC50 (pSTAT3 (pY705-STAT3)): > 7.00
pIC50 (pSTAT6 (pY641-STAT6)): < 5.52

CC(=O)N1C[C@H](NC(=O)[C@@H]2CC[C@@H]3C[C@H]4C[C@H]4C[C@H](NC(=O)c4cc5cc(C(F)(F)P(=O)(OCOC(=O)C(C)(C)C)OCOC(=O)C(C)(C)C)ccc5s4)C(=O)N32)[C@@H](O)C1 [Compound 208, ((((2-(((3S,6S,7aS, 8aR,9aR)-3-(((3S,4S)-1-acetyl-4-hydroxy-pyrrolidin-3-yl)carbamoyl) 5-oxodecahydro-1H-cyclopropa[d]pyrrolo[1,2-a]azocin-6-yl)carbamoyl)benzo[b]thiophen-5-yl)difluoromethyl)phosphoryl)bis(oxy)) bis(methylene) bis(2,2-dimethyl-propanoate)]
pIC50 (pSTAT3 (pY705-STAT3)): > 7.00
pIC50 (pSTAT6 (pY641-STAT6)): 5.52 to 6.00

CC(C)(C)C(=O)OCOP(=O)(OCOC(=O)C(C)(C)C)C(F)(F)c1ccc2sc(C(=O)N[C@H]3C[C@H]4C[C@H]4C[C@H]4CC[C@@H](C(=O)N5CC(c6ccccn6)C5)N4C3=O)cc2c1 [Compound 209, (((difluoro(2-(((3S,6S,7aR, 8aS,9aR)-5-oxo-3-(3-(pyridin-2-yl)azetidine-1-carbonyl)decahydro-1H-cyclopropa[d]pyrrolo[1,2-a]azocin-6-yl)carbamoyl)benzo[b]thiophen-5-yl)methyl)phosphoryl)bis(oxy)) bis(methylene) bis(2,2-dimethyl-propanoate)]
pIC50 (pSTAT3 (pY705-STAT3)): > 7.00
pIC50 (pSTAT6 (pY641-STAT6)): 6.00 to 7.00

CC(C)(C)C(=O)OCOP(=O)(OCOC(=O)C(C)(C)C)C(F)(F)c1ccc2sc(C(=O)N[C@H]3C[C@@H]4C[C@@H]4C[C@H]4CC[C@@H](C(=O)N5CC6(CN(C(=O)Cc7ccccc7)C6)C5)N4C3=O)cc2c1 [Compound 210, (((difluoro(2-(((3S,6S,7aS, 8aR,9aR)-5-oxo-3-(6-(2-phenyl-acetyl)-2,6-diazaspiro[3.3]heptane-2-carbonyl)decahydro-1H-cyclopropa[d]pyrrolo[1,2-a]azocin-6-yl)carbamoyl)benzo[b]thiophen-5-yl)methyl)phosphoryl)bis(oxy)) bis(methylene) bis(2,2-dimethyl-propanoate)]
pIC50 (pSTAT3 (pY705-STAT3)): > 7.00
pIC50 (pSTAT6 (pY641-STAT6)): 6.00 to 7.00

CC(C)(C)C(=O)OCOP(=O)(OCOC(=O)C(C)(C)C)C(F)(F)c1ccc2sc(C(=O)N[C@H]3C[C@@H]4C[C@@H]4C[C@H]4CC[C@@H](C(=O)N5CCN(C(=O)c6cn[nH]c6)CC5)N4C3=O)cc2c1 [Compound 211, ((((2-(((3S,6S,7aS, 8aR,9aR)-3-(4-(1H-pyrazole-4-carbonyl)piperazine-1-carbonyl)-5-oxodecahydro-1H-cyclopropa[d]pyrrolo[1,2-a]azocin-6-yl)carbamoyl)benzo[b]thiophen-5-yl)difluoromethyl)phosphoryl)bis(oxy)) bis(methylene) bis(2,2-dimethyl-propanoate)]
pIC50 (pSTAT3 (pY705-STAT3)): 6.00 to 7.00
pIC50 (pSTAT6 (pY641-STAT6)): < 5.52

CC(C)(C)C(=O)OCOP(=O)(OCOC(=O)C(C)(C)C)C(F)(F)c1ccc2sc(C(=O)N[C@H]3C[C@@H]4C[C@@H]4C[C@H]4CC[C@@H](C(=O)N[C@@H]5CCN(c6cccnc6)C5)N4C3=O)cc2c1 [Compound 212, (((difluoro(2-(((3S,6S,7aS, 8aR,9aR)-5-oxo-3-(((R)-1-(pyridin-3-yl)pyrrolidin-3-yl)carbamoyl)decahydro-1H-cyclopropa[d]pyrrolo[1,2-a]azocin-6-yl)carbamoyl)benzo[b]thiophen-5-yl)methyl)phosphoryl)bis(oxy)) bis(methylene) bis(2,2-dimethyl-propanoate)]
pIC50 (pSTAT3 (pY705-STAT3)): > 7.00
pIC50 (pSTAT6 (pY641-STAT6)): < 5.52

CC(C)(C)C(=O)OCOP(=O)(OCOC(=O)C(C)(C)C)C(F)(F)c1ccc2sc(C(=O)N[C@H]3C[C@H]4C[C@H]4C[C@H]4CC[C@@H](C(=O)N[C@@H]5CCN(c6cccnc6)C5)N4C3=O)cc2c1 [Compound 213, (((difluoro(2-(((3S,6S,7aR, 8aS,9aR)-5-oxo-3-(((R)-1-(pyridin-3-yl)pyrrolidin-3-yl)carbamoyl)decahydro-1H-cyclopropa[d]pyrrolo[1,2-a]azocin-6-yl)carbamoyl)benzo[b]thiophen-5-yl)methyl)phosphoryl)bis(oxy)) bis(methylene) bis(2,2-dimethyl-propanoate)]
pIC50 (pSTAT3 (pY705-STAT3)): 6.00 to 7.00
pIC50 (pSTAT6 (pY641-STAT6)): < 5.52

CC(C)(C)C(=O)OCOP(=O)(OCOC(=O)C(C)(C)C)C(F)(F)c1ccc2sc(C(=O)N[C@H]3C[C@H]4C[C@H]4C[C@H]4CC[C@@H](C(=O)N5CC(n6ccnc6)C5)N4C3=O)cc2c1 [Compound 214, ((((2-(((3S,6S,7aR, 8aS,9aR)-3-(3-(1H-imidazol-1-yl)azetidine-1-carbonyl)-5-oxodecahydro-1H-cyclopropa[d]pyrrolo[1,2-a]azocin-6-yl)carbamoyl)benzo[b]thiophen-5-yl)difluoromethyl)phosphoryl)bis(oxy)) bis(methylene) bis(2,2-dimethyl-propanoate)]
pIC50 (pSTAT3 (pY705-STAT3)): > 7.00
pIC50 (pSTAT6 (pY641-STAT6)): < 5.52
